Test results reported in patent US20250154135A1, “M-CHOLINE RECEPTOR AGONIST COMPOUND, PREPARATION METHOD THEREFOR AND USE THEREOF” (NANJING GRITPHARMA CO., LTD., priority 2022, published 2025).

Experiment: Stability tests on compound starting materials (HPLC related substances)
Type: physicochemical
Details: for (Z-A) impurity A isopilocarpine / (Z-B) impurity B pilocarpic acid / (Z-C) impurity C isopilocarpic acid / Maximum single impurity / Total impurity: starting material
Method: Samples: compound 1, compound 2 and pilocarpine hydrochloride starting material solid particles.
High-temperature test: 1 g of each of compound 1, compound 2 and pilocarpine hydrochloride starting materials were taken and placed in an open container inside a constant temperature device at 40° C.; samples were taken at time points of day 0 and day 5, and then tested according to the key stability examination items. The stability of the active pharmaceutical ingredient itself and the trend of changes in stability under the conditions of influencing factor tests were observed.
Strong light irradiation test: 1 g of each of compound 1, compound 2 and pilocarpine hydrochloride starting materials were taken and placed in an open container inside a light irradiation box, with the illumination set at 4500 lx±500 lx; samples were taken at time points of day 0 and day 5, and then tested according to the key stability examination items.
High-humidity test: 1 g of each of compound 1, compound 2 and pilocarpine hydrochloride starting materials was taken and placed in an open container inside a constant humidity closed container at 25° C. and with a relative humidity of 75%±5%; samples were taken at day 0 and day 5, and then tested according to the requirements of the key stability examination items.
According to the records in the European Pharmacopoeia (EP), the key related substances to be examined for pilocarpine include: impurity A isopilocarpine (Z-A), impurity B pilocarpic acid (Z-B), and impurity C isopilocarpic acid (Z-C). The samples taken at different time points from the above high-temperature test, strong light irradiation test and high-humidity test were separately tested using high-performance liquid chromatography to observe the trend of changes in stability under the conditions of the influencing factor tests.
The related substances were determined according to the high-performance liquid chromatography (General Chapter 0512, Chinese Pharmacopoeia, Volume IV, 2020 Edition).
Test sample solution: an appropriate amount of each test sample was precisely weighed, dissolved in water, and diluted to prepare a solution containing 1 mg of test sample per 1 mL.
Chromatographic conditions: octadecyl bonded silica gel was used as a filler [kromasil 100-5-C18 column (4.0 mm×[…]) or a chromatographic column with equivalent performance], 0.679 g/L tetrabutylammonium dihydrogen phosphate-methanol-acetonitrile (885:55:60) (adjusted to pH 7.7 with dilute aqueous ammonia) was used as mobile phase A, and acetonitrile-water (80:20) was used as mobile phase B; gradient elution was performed according to Table 6-1, with a column temperature of 30° C., a flow rate of 1.0 mL/min, a detection wavelength of 220 nm, and a sample injection volume of 20 μL.

[1] = 40° C. and high light irradiation

Row | SMILES | impurity increasing rate compared to pilocarpine hydrochloride starting material [1] | impurity increasing rate compared to pilocarpine hydrochloride starting material (5 days, high humidity (RH 75%)) | (Z-A) impurity A isopilocarpine (40° C.-5 days) [%] | (Z-B) impurity B pilocarpic acid (40° C.-5 days) [%] | (Z-C) impurity C isopilocarpic acid (40° C.-5 days) [%] | Maximum single impurity (40° C.-5 days) [%] | Total impurity (40° C.-5 days) [%] | (Z-A) impurity A isopilocarpine (Day 0) [%] | (Z-B) impurity B pilocarpic acid (Day 0) [%] | (Z-C) impurity C isopilocarpic acid (Day 0) [%] | Maximum single impurity (Day 0) [%] | Total impurity (Day 0) [%] | (Z-A) impurity A isopilocarpine (Light-5 days (4500 lx)) [%] | (Z-B) impurity B pilocarpic acid (Light-5 days (4500 lx)) [%] | (Z-C) impurity C isopilocarpic acid (Light-5 days (4500 lx)) [%] | Maximum single impurity (Light-5 days (4500 lx)) [%] | Total impurity (Light-5 days (4500 lx)) [%] | (Z-A) impurity A isopilocarpine (RH 75%-5 days, 25° C.) [%] | (Z-B) impurity B pilocarpic acid (RH 75%-5 days, 25° C.) [%] | (Z-C) impurity C isopilocarpic acid (RH 75%-5 days, 25° C.) [%] | further results
1 | CC[C@@H]1C(=O)OC[C@@H]1Cc1cncn1C [Compound 2] | comparable to those of the pilocarpine hydrochloride starting material | significantly slower than those of the pilocarpine hydrochloride | 0.338 | 0.072 | 0 | 0 | 0.353 | 0.307 | 0 | 0 | 0 | 0.307 | 0.333 | 0.046 | 0 | 0 | 0.339 | 0.311 | 0.116 | 0 | Maximum single impurity (RH 75%-5 days, 25° C.): 0%; Total impurity (RH 75%-5 days, 25° C.): 0.427%
2 | CC[C@@H]1C(=O)OC[C@@H]1Cc1cncn1C [Compound 1] | comparable to those of the pilocarpine hydrochloride starting material | significantly slower than those of the pilocarpine hydrochloride | 0.365 | 0 | 0 | 0 | 0.365 | 0.328 | 0 | 0 | 0 | 0.328 | 0.329 | 0 | 0 | 0 | 0.329 | 0.310 | 0 | 0 | Maximum single impurity (RH 75%-5 days, 25° C.): 0%; Total impurity (RH 75%-5 days, 25° C.): 0.331%
